Laboratory results as given in patent US9187455B2, “Substituted pyridazines as PDE10A inhibitors” (Hoffmann-La Roche Inc., priority 2009, dated 2015).

Target: T1, PDE10A2 (Homo sapiens, UniProt Q9Y233)
T1 construct: residues serine 449 to aspartate 789; His6 (H6) with Gateway linker and thrombin cleavage site (N, cleaved yes); made in house; host or cells: E. coli BL21(DE3) pLysS
Experiment: PDE10A2 Scintillation Proximity Assay (SPA), [3H]-cGMP hydrolysis
Assay type: biochemical
Conditions: catalytic domain of human PDE10A2 (S449-D789), 0.25 nM enzyme, 50 nM cGMP + 50 nM [3H]-cGMP, 30 minutes at room temperature; read-out: PDE10A2 inhibition IC50
Method: The following tests were carried out in order to determine the activity of the compounds of the present invention. PDE10 activity of the compounds of the present invention is determined using a Scintillation Proximity Assay (SPA)-based method similar to the one previously described (Fawcett, L. et al., ProcNatl Acad Sci USA (2000) 97(7):3702-3707).
PDE10A1 and PDE10A2 are two splice variants of PDE10A. There are these 2 splice variants known, which differ in the N-terminal part of the protein. The catalytic domains of PDE10A1 and PDE10A2 are identical. The assay for PDE10A2 described below is therefore also representative for PDE10A1 and also for PDE10A in general.
The PDE10A2 assay was performed in a two step procedure in 96-well micro titer plates. The reaction mixture of 80 μl contained 20 mM HEPES/10 mM MgCl2/[…] (pH 7.5), 50 nM cGMP (Sigma) and 50 nM [^3H]-cGMP (GE Healthcare), 0.25 nM PDE10A2 with or without a specific test compound. A range of concentrations of the potential inhibitor was used to generate data for calculating the concentration of inhibitor resulting in 50% of the effect (e.g. IC50, the concentration of the competitor inhibiting PDE10A2 activity 50%). Non-specific activity was tested without the enzyme. The reaction was initiated by addition of the substrate solution (cGMP and [^3H]-cGMP) and allowed to progress for 30 minutes at room temperature. The reaction was terminated by transferring 50 μl of the reaction mixture into an OptiPlate (Perkin Elmer) containing 25 μl of YSi-SPA scintillation beads (GE Healthcare) in 18 mM zinc sulphate solution (stop reagent). After 1 h under shaking, the plate was centrifuged one minute at 1000 rpm to allow beads to settle. Afterwards, radioactive counts were measured on a Perkin Elmer TopCount Scintillation plate reader.
The catalytic domain of human PDE10A2, residues serine 449 to aspartate 789, was amplified by PCR using cDNA (Origene) and the oligonucleotides 5′-GGGGACAAGTTTGT […]-3′ (with AttB1 recombination site in bold and thrombin protease cleavage site in italics) and 5′-[…]-3′ (with AttB2 recombination site in bold) which conferred Gateway recombination sites. The PCR product was used in a BP recombination reaction with pDONR221 to generate pENTR Thm-PDE10A2(S449-D789) which was DNA sequence verified and then used in an LR recombination reaction with a Gateway modified version of pET11a. The resulting expression vector, placT7.2H6-(gwl)-Thm-PDE10A2(S449-D789) was DNA sequence confirmed and transformed into E. coli strain BL21(DE3) pLysS and recombinant protein was produced in TB medium at 20° C. by induction to a final IPTG concentration of 0.5 mM at an optical density of 1.0 at 600 nm for 20 hours. About 30% of the protein was in the soluble fraction of the cell homogenate. The protein was purified using sequential chromatography on Ni-NTA and HiTrapQ/HiTrapS. After thrombin digest at room temperature a HiTrapChelating/HiTrap Benzamindin chromatography removed impurities, uncleaved protein and thrombin. Final purification of PDE10A2(S449-D789) was performed on a Superdex 75 size exclusion chromatography equilibrated with 25 mM HEPES pH 8.4, 0.15 M NaCl. The yield of pure protein was 2 mg/liter of culture volume is relatively low. The purity of the protein was >95%, monomeric and monodisperse as shown by SDS-PAGE, HPLC and analytical ultracentrifugation.

T1 sequence (Q9Y233 715-1055): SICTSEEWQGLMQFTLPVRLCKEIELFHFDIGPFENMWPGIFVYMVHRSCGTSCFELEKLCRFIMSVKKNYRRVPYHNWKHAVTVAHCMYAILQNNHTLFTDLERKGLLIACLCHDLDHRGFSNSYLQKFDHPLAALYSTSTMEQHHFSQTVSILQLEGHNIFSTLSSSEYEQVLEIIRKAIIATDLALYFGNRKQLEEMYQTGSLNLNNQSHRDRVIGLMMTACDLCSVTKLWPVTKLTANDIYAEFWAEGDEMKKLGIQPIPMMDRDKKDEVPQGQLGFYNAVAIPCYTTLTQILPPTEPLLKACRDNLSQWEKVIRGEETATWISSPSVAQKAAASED

| IC50 [nM] | SMILES |
| --- | --- |
| 178 | O=c1ccn(-c2cncc(C(F)(F)F)c2)nc1-c1ccnn1-c1ccccc1F [Example 68, 3-[2-(2-Fluoro-phenyl)-2H-pyrazol-3-yl]-1-(5-trifluoromethyl-pyridin-3-yl)-1H-pyridazin-4-one] |
| 57 | O=c1ccn(-c2ccnc(Cl)c2)nc1-c1ccnn1-c1ccnc2cc(Cl)ccc12 [Example 69, 1-(2-Chloro-pyridin-4-yl)-3-[2-(7-chloro-quinolin-4-yl)-2H-pyrazol-3-yl]-1H-pyridazin-4-one] |
| 253 | O=c1ccn(-c2cncc(Cl)c2)nc1-c1ccnn1-c1ccnc2cc(Cl)ccc12 [Example 70, 1-(5-Chloro-pyridin-3-yl)-3-[2-(7-chloro-quinolin-4-yl)-2H-pyrazol-3-yl]-1H-pyridazin-4-one] |
| 56 | O=c1ccn(-c2cncc(C(F)(F)F)c2)nc1-c1ccnn1-c1ccnc2ccccc12 [Example 71, 3-(2-Quinolin-4-yl-2H-pyrazol-3-yl)-1-(5-trifluoromethyl-pyridin-3-yl)-1H-pyridazin-4-one] |
| 78 | O=c1ccn(-c2ccncc2)nc1-c1ccnn1-c1ccnc2ccc(Cl)cc12 [Example 72, 3-[2-(6-Chloro-quinolin-4-yl)-2H-pyrazol-3-yl]-1-pyridin-4-yl-1H-pyridazin-4-one] |
| 188 | O=c1ccn(-c2ccncc2)nc1-c1ccnn1-c1cncc2ccccc12 [Example 73, 3-(2-Isoquinolin-4-yl-2H-pyrazol-3-yl)-1-pyridin-4-yl-1H-pyridazin-4-one] |
| 27 | O=c1ccn(-c2cncc(OC(F)F)c2)nc1-c1ccnn1-c1ccccc1F [Example 74, 1-(5-Difluoromethoxy-pyridin-3-yl)-3-[2-(2-fluoro-phenyl)-2H-pyrazol-3-yl]-1H-pyridazin-4-one] |
| 120 | O=c1ccn(-c2ccc(C(F)(F)F)nc2)nc1-c1ccnn1-c1ccccc1F [Example 75, 3-[2-(2-Fluoro-phenyl)-2H-pyrazol-3-yl]-1-(6-trifluoromethyl-pyridin-3-yl)-1H-pyridazin-4-one] |
| 619 | N#Cc1ccc(-n2ccc(=O)c(-c3ccnn3-c3ccccc3F)n2)cn1 [Example 76, 5-{3-[2-(2-Fluoro-phenyl)-2H-pyrazol-3-yl]-4-oxo-4H-pyridazin-1-yl}-pyridine-2-carbonitrile] |
| 183 | O=c1ccn(-c2ccc(Cl)nc2)nc1-c1ccnn1-c1ccccc1F [Example 77, 1-(6-Chloro-pyridin-3-yl)-3-[2-(2-fluoro-phenyl)-2H-pyrazol-3-yl]-1H-pyridazin-4-one] |
| 38 | O=c1ccn(-c2cnc3ccccc3c2)nc1-c1ccnn1-c1ccccc1F [Example 78, 3-[2-(2-Fluoro-phenyl)-2H-pyrazol-3-yl]-1-quinolin-3-yl-1H-pyridazin-4-one] |
| 12 | Cc1cc(-n2ccc(=O)c(-c3ccnn3-c3ccnc4ccccc34)n2)ccn1 [Example 79, 1-(2-Methyl-pyridin-4-yl)-3-(2-quinolin-4-yl-2H-pyrazol-3-yl)-1H-pyridazin-4-one] |
| 72 | O=c1ccn(-c2ccc(C(F)(F)F)nc2)nc1-c1ccnn1-c1cccc2ncccc12 [Example 80, 3-(2-Quinolin-5-yl-2H-pyrazol-3-yl)-1-(6-trifluoromethyl-pyridin-3-yl)-1H-pyridazin-4-one] |
| 107 | O=c1ccn(-c2ccc(C(F)(F)F)nc2)nc1-c1ccnn1-c1cccc2cnccc12 [Example 81, 3-(2-Isoquinolin-5-yl-2H-pyrazol-3-yl)-1-(6-trifluoromethyl-pyridin-3-yl)-1H-pyridazin-4-one] |
| 102 | Cc1cncc(-n2ccc(=O)c(-c3ccnn3-c3ccnc4cc(Cl)ccc34)n2)c1 [Example 82, 3-[2-(7-Chloro-quinolin-4-yl)-2H-pyrazol-3-yl]-1-(5-methyl-pyridin-3-yl)-1H-pyridazin-4-one] |
| 134 | Cc1cc(-n2ccc(=O)c(-c3ccnn3-c3cccc4ncccc34)n2)ccn1 [Example 83, 1-(2-Methyl-pyridin-4-yl)-3-(2-quinolin-5-yl-2H-pyrazol-3-yl)-1H-pyridazin-4-one] |
